In the first assay the target is T1, full-length human PKCι (Homo sapiens, UniProt P41743).
T1 construct: Recombinant, full-length human PKCι expressed in Sf21 insect cells is also commercially available; purchased; host or cells: Sf21 insect cells
T1 sequence (P41743 1-596): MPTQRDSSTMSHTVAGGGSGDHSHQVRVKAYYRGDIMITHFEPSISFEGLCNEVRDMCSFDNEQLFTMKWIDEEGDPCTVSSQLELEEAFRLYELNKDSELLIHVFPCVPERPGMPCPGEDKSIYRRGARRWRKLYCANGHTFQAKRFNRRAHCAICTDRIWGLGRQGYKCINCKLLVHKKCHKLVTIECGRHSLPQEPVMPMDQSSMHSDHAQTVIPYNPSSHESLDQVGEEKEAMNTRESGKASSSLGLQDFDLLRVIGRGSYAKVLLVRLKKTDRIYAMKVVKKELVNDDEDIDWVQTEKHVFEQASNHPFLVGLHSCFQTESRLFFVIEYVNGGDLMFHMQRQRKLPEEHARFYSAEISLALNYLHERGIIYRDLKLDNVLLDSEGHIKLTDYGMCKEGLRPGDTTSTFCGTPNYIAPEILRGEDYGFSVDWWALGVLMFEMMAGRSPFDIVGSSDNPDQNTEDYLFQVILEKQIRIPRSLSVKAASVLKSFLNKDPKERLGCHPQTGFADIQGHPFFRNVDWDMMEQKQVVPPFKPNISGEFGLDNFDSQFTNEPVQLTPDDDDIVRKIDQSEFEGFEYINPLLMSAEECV
Nature of the assay: PKCι IC50 IMAP fluorescence polarisation assay, full-length enzyme. It counts as biochemical. The settings on record: full length PKCi at 15 μM ATP; read-out: IC50 in IMAP assay against full length PKCi. How it is done: Assays are based on the ability of PKCι to phosphorylate a commercially available peptide substrate in vitro. […] Recombinant, full-length human PKCι expressed in Sf21 insect cells is also commercially available. Recombinant, kinase-domain human PKCι is expressed and purified in-house.
The procedure below explains how dose response curves for inhibitors of PKCι are obtained.
Compounds to be tested are dissolved in 100% DMSO. […] 1 μl is plated into 384 well black low-binding flat bottomed assay plates which are used immediately. Dilutions and additions of compound to assay plates are carried out using Matrix WellMate® and Matrix PlateMate® Plus liquid handling systems.
The final concentration of peptide substrate in the assay is 100 nM. […] Relevant controls are included, namely no compound and no enzyme. […] The reaction is allowed to incubate for 60 minutes at room temperature, before the reaction is stopped and developed by the addition of 20 μl IMAP™ development reagent (Molecular Devices). IMAP development reagent consists of 0.25% (v/v) IMAP progressive binding reagent, 17% (v/v) IMAP progressive binding buffer A and 3% (v/v) IMAP progressive binding buffer B. The plates are then incubated for 2 hours at room temperature before being read using an appropriate plate reader, for example a Molecular Devices HT Analyst or a BMG Pherastar.
Background: In fluorescence polarisation assays a small probe gives low polarisation when free and higher when bound to something large.
For `N[C@H](CNc1nc(-c2ccncc2)nc2c(C#Cc3ccccc3F)csc12)Cc1ccccc1` [compound 530, (S)-N*1*-[7-(2-Fluoro-phenylethynyl)-2-pyridin-4-yl-thieno[3,2-d]pyrimidin-4-yl]-3-phenyl-propane-1,2-diamine], the IC50 (in general, the concentration that inhibits the measured activity by half) was in the range of 0.1 to 1 µM.
`C[C@H](N)CNc1nc(-c2ccncc2F)nc2ccsc12` [compound 353, (S)-N*1*-[2-(3-Fluoro-pyridin-4-yl)-thieno[3,2-d]pyrimidin-4-yl]-propane-1,2-diamine]: the IC50 is 10 to 40 µM.
The same measure, in the same setting: next, `COC(C)(C)C#Cc1csc2c(NC[C@@H](N)Cc3ccccc3)nc(-c3ccncc3)nc12` [compound 520, (S)-N*1*-[7-(3-Methoxy-3-methyl-but-1-ynyl)-2-pyridin-4-yl-thieno[3,2-d]pyrimidin-4-yl]-3-phenyl-propane-1,2-diamine]: 0.1 to 1 µM; `Brc1csc2c(NC[C@H]3CCCN3)nc(-c3ccncc3)nc12` [compound 342, (7-Bromo-2-pyridin-4-yl-thieno[3,2-d]pyrimidin-4-yl)-(R)-1-pyrrolidin-2-ylmethyl-amine]: 10 to 40 µM.
Turning to `N[C@H](CNc1nc(-c2ccncc2)nc2c(-c3ccon3)csc12)Cc1ccccc1` [compound 572, (S)-N*1*-(7-Isoxazol-3-yl-2-pyridin-4-yl-thieno[3,2-d]pyrimidin-4-yl)-3-phenyl-propane-1,2-diamine], the IC50 lay in the range of 0.1 to 1 µM.
As to `N[C@H](CNc1nc(-c2ccncc2)nc2c(-c3ccc(F)cc3)csc12)Cc1ccccc1` [compound 409, (S)-N*1*-[7-(4-Fluoro-phenyl)-2-pyridin-4-yl-thieno[3,2-d]pyrimidin-4-yl]-3-phenyl-propane-1,2-diamine], the IC50 is 0.1 to 1 µM.
For `N[C@H](CNc1nc(-c2ccncc2)nc2c(C#CC3CC3)csc12)Cc1ccccc1` [compound 512, (S)-N*1*-(7-Cyclopropylethynyl-2-pyridin-4-yl-thieno[3,2-d]pyrimidin-4-yl)-3-phenyl-propane-1,2-diamine], the IC50 was less than 0.1 µM.
As to `CCN(CC)C(=O)c1csc2c(NC[C@@H](N)Cc3ccccc3)nc(-c3ccncc3)nc12` [compound 552, 4-((S)-2-Amino-3-phenyl-propylamino)-2-pyridin-4-yl-thieno[3,2-d]pyrimidine-7-carboxylic acid diethylamide], the IC50 lay within 1 to 10 µM.
On the same count and under the same terms, next, `Cc1sc2c(NC[C@@H](N)Cc3ccccc3)nc(-c3ccncc3)nc2c1-c1c(Cl)cccc1C(F)(F)F` [compound 452, (S)-N*1*-[7-(2-Chloro-6-trifluoromethyl-phenyl)-6-methyl-2-pyridin-4-yl-thieno[3,2-d]pyrimidin-4-yl]-3-phenyl-propane-1,2-diamine]: 10 to 40 µM; `N[C@H](CNc1nc(-c2ccncc2)nc2c(C#CCCO)csc12)Cc1ccccc1` [compound 531, 4-[4-((S)-2-Amino-3-phenyl-propylamino)-2-pyridin-4-yl-thieno[3,2-d]pyrimidin-7-yl]-but-3-yn-1-ol]: less than 0.1 µM.
Turning to `C[C@H](O)C#Cc1csc2c(N[C@@H]3CCNC3)nc(-c3ccncc3)nc12` [compound 517, (S)-4-[2-Pyridin-4-yl-4-((R)-pyrrolidin-3-ylamino)-thieno[3,2-d]pyrimidin-7-yl]-but-3-yn-2-ol], the IC50 was less than 0.1 µM.
As to `C[C@H](N)CNc1nc(-c2ccncc2)nc2c(Br)csc12` [compound 305, (S)—N*1*-(7-Bromo-2-pyridin-4-yl-thieno[3,2-d]pyrimidin-4-yl)-propane-1,2-diamine], the IC50 was 0.1 to 1 µM.
For the molecule `N[C@H](CNc1nc(-c2cc[n+]([O-])cc2)nc2c(-c3ccn[nH]3)csc12)Cc1ccccc1` [compound 565, (S)—N*1*-[2-(1-Oxy-pyridin-4-yl)-7-(2H-pyrazol-3-yl)-thieno[3,2-d]pyrimidin-4-yl]-3-phenyl-propane-1,2-diamine], the IC50 was in the range of 1 to 10 µM.
Regarding `Cc1sc2c(NC[C@H](N)Cc3ccccc3)nc(-c3ccncc3)nc2c1Br` [compound 329, (R)-N*1*-(7-Bromo-6-methyl-2-pyridin-4-yl-thieno[3,2-d]pyrimidin-4-yl)-3-phenyl-propane-1,2-diamine], the IC50 was in the range of 1 to 10 µM.
With `F[C@H]1CN(Cc2ccccc2)C[C@@H]1Nc1nc(-c2ccncc2)nc2ccsc12` [compound 315, ((3S,4S)-1-Benzyl-4-fluoro-pyrrolidin-3-yl)-(2-pyridin-4-yl-thieno[3,2-d]pyrimidin-4-yl)-amine], the IC50 is 10 to 40 µM.
As to `CS(=O)(=O)Nc1cc(-c2nc(N[C@@H]3CCNC3)c3sccc3n2)ccn1` [compound 624, N-{4-[4-((R)-Pyrrolidin-3-ylamino)-thieno[3,2-d]pyrimidin-2-yl]-pyridin-2-yl}-methanesulfonamide], the IC50 was 10 to 40 µM.
For the molecule `CC(C)[C@H](N)CNc1nc(-c2ccncc2)nc2c(Br)csc12` [compound 347, (S)-N*1*-(7-Bromo-2-pyridin-4-yl-thieno[3,2-d]pyrimidin-4-yl)-3-methyl-butane-1,2-diamine], the IC50 lay within 0.1 to 1 µM.
On to `Cc1c(C#CC(C)(C)O)sc2c(N[C@@H]3CCNC3)nc(-c3ccncc3)nc12` [compound 502, 2-Methyl-4-[7-methyl-2-pyridin-4-yl-4-((R)-pyrrolidin-3-ylamino)-thieno[3,2-d]pyrimidin-6-yl]-but-3-yn-2-ol], for which the IC50 fell in the range of 1 to 10 µM.
Turning to `C[C@H](O)C#Cc1csc2c(NC[C@@H](N)Cc3ccccc3)nc(-c3ccncc3)nc12` [compound 533, (S)-4-[4-((S)-2-Amino-3-phenyl-propylamino)-2-pyridin-4-yl-thieno[3,2-d]pyrimidin-7-yl]-but-3-yn-2-ol], the IC50 was less than 0.1 µM.
Regarding `CN(C)C(=O)c1csc2c(NC[C@@H](N)Cc3ccccc3)nc(-c3ccncc3)nc12` [compound 550, 4-((S)-2-Amino-3-phenyl-propylamino)-2-pyridin-4-yl-thieno[3,2-d]pyrimidine-7-carboxylic acid dimethylamide], the IC50 fell in the range of 1 to 10 µM.
For the molecule `N[C@H](CNc1nc(-c2ccncc2)nc2c(NC(=O)C3CCCCC3)csc12)Cc1ccccc1` [compound 474, Cyclohexanecarboxylic acid [4-((S)-2-amino-3-phenyl-propylamino)-2-pyridin-4-yl-thieno[3,2-d]pyrimidin-7-yl]-amide], the IC50 lay in the range of 10 to 40 µM.
In the case of `c1cc(-c2nc(N[C@@H]3CCNC3)c3sccc3n2)cc(Nc2ccc(CN3CCCC3)cc2)n1` [compound 611, (R)-Pyrrolidin-3-yl-{2-[2-(4-pyrrolidin-1-ylmethyl-phenylamino)-pyridin-4-yl]-thieno[3,2-]pyrimidin-4-yl}-amine], the IC50 lay in the range of 1 to 10 µM.

The same assay, now with this note: full length PKCi at 15 μM ATP; read-out: IC50 in IMAP assay against full length PKCi (Activity).
`C[C@H](N)CNc1nc(-c2ccncc2)nc2sc3c(c12)CCN(C(=O)OC(C)(C)C)C3` [compound 96, 4-((S)-2-Amino-propylamino)-2-pyridin-4-yl-5,8-dihydro-6H-pyrido[4′,3′:4,5]thieno[2,3-d]pyrimidine-7-carboxylic acid tert-butyl ester]: the IC50 was in the range of 10 to 40 µM.
Consider `NCCNc1nc(-c2ccncc2)nc2sc3c(c12)CCOC3` [compound 45, N*1*-(2-Pyridin-4-yl-5,8-dihydro-6H-pyrano[4′3′:4,5]thieno[2,3-d]pyrimidin-4-yl)-ethane-1,2-diamine], for which the IC50 was in the range of 10 to 40 µM.
In the case of `NCCNc1nc(-c2ccncc2)nc2sc3c(c12)CCCC3` [compound 12, N*1*-(2-pyridin-4-yl-5,6,7,8-tetrahydro-benzo[4,5]thieno[2,3-d]pyrimidin-4-yl)-ethane-1,2-diamine], the IC50 was in the range of 0.1 to 1 µM.
`N[C@@H](CNc1nc(-c2ccncc2)nc2sc3c(c12)CCN(C(=O)c1ccccc1)C3)Cc1ccccc1` [compound 73, [4-((R)-2-Amino-3-phenyl-propylamino)-2-pyridin-4-yl-5,8-dihydro-6H-pyrido[4′,3′:4,5]thieno[2,3-d]pyrimidin-7-yl]-phenyl-methanone]: the IC50 lay within 1 to 10 µM.
Regarding `CC(C)(C)C(=O)N1CCc2c(sc3nc(-c4ccncc4)nc(NCCN)c23)C1` [compound 104, 1-[4-(2-amino-ethylamino)-2-pyridin-4-yl-5,8-dihydro-6H-pyrido[4′,3′:4,5]thieno[2,3-d]pyrimidin-7-yl]-2,2-dimethyl-propan-1-one], the IC50 was 10 to 40 µM.
`NCCNc1nc(-c2ccncc2)nc2sc3c(c12)CCC1(C3)OCCO1` [compound 42]: the IC50 was in the range of 1 to 10 µM.

The values above are taken from patent US10183950B2, “Thienopyrimidine inhibitors of atypical protein kinase C” (Cancer Research Technology Limited, priority 2011, dated 2019).
